From US20260354380A1, “PYRAZOLO PESTICIDAL COMPOUNDS” (BASF SE, priority 2022, published 2026)

Legend:
Type in all cases: in vivo
[1] = test system: Aedes aegypti; experiment: whole plant or invertebrate; conditions: 800 ppm; larvae; 2 days
In short: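 Visual larval mortality was assessed 2 days after treatment (28±1 °C, 80±5% RH). Formulations of compounds or mixtures (75% water/25% DMSO) were applied by micro-atomizer onto diet of 5-15 newly hatched larvae per water-filled well, two replicates per concentration.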

[2] = test system: Anthonomus grandis; experiment: Action on Boll Weevil (Anthonomus grandis); conditions: 800 ppm; egg and larval mortality; 5 days
In short: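 Diet in 96-well plates, seeded with 5-10 A. grandis eggs, received a spray of formulated compound (25% DMSO in water) at a range of concentrations, duplicated. Mortality of eggs and larvae was judged by eye after 5 days at about 25±1 °C, 75±5% relative humidity.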

[3] = test system: Heliothis virescens; experiment: Action on Tobacco Budworm (Heliothis virescens); conditions: 800 ppm; egg and larval mortality; 5 days
In short: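 Eggs (15-25 per well) on diet were held 5 days at about 28±1 °C, 80±5% RH, then egg and larval mortality was scored by eye. Beforehand the diet had been sprayed with compound dilutions formulated in water/DMSO 75:25 v/v, in two replicates.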

[4] = test system: Spodoptera eridania; experiment: Action on Southern Armyworm (Spodoptera eridania), 2nd Instar Larvae; conditions: 300 ppm; 2nd instar larvae; 4 days after treatment
In short: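 2nd-instar Spodoptera eridania larvae (about 10–11 per pot) confined on sprayed, dried Lima bean plants (1st true leaf stage) in sealed bags. Spray solutions: acetone/water 1:1 plus 0.01% surfactant. Held 4 days near 25 °C, 20–40% RH; assessed for mortality and feeding reduction against untreated controls.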

[5] = test system: Plutella xylostella; experiment: Action on Diamond Back Moth (Plutella xylostella), microtiter plates, insect diet, eggs; conditions: 800 ppm; egg and larval mortality; 5 days
Procedure: Example B8: Action on Diamond Back Moth (Plutella xylostella)
For evaluating control of diamond back moth (Plutella xylostella) the test unit consisted of 96-well-microtiter plates containing an insect diet and 15-25 P. xylostella eggs. The compounds or mixtures were formulated using a solution containing 75% water and 25% DMSO. Different concentrations of formulated compounds or mixtures were sprayed onto the insect diet at 5 μl, using a custom-built micro atomizer, at two replications. For experimental mixtures in these tests identical volumes of both mixing partners at the desired concentrations respectively, were mixed together. After application, microtiter plates were incubated at 28±1 °C, 80±5% RH for 5 days. Egg and larval mortality was then visually assessed.

| SMILES | mortality in comparison with untreated controls [1] | mortality in comparison with untreated controls [2] | mortality in comparison with untreated controls [3] | mortality in comparison with untreated controls [4] | mortality in comparison with untreated controls [5] |
| --- | --- | --- | --- | --- | --- |
| Cc1ccc(C(C)C)c(N2C(=O)CS/C2=N\C(=O)Nc2cc(C)c(-n3nc(C)c(NC(=O)c4ccc(OC(F)(F)F)cc4)c3C)cc2Cl)c1 [Example C-99] | at least 50% | at least 75% | at least 75% | at least 75% | at least 75% |
| Cc1ccc(C(C)C)c(N2C(=O)CSC2=NC(=O)Nc2ccc(-n3cc(NC(=O)c4cncnc4)c(C)n3)cc2)c1 [Example C-68] | – | at least 75% | at least 75% | at least 75% | at least 75% |
| Cc1ccc(C(C)C)c(N2C(=O)CSC2=NC(=O)Nc2ccc(-n3nc(C)c(NC(=O)c4cc(F)c(F)cc4F)c3C)cc2)c1 [Example C-120] | at least 50% | at least 75% | at least 75% | at least 75% | at least 75% |
| Cc1ccc(C(C)C)c(NC(=S)NC(=O)Nc2ccc(-n3cc(NC(=O)c4ccc(OC(F)(F)F)cc4)c(C)n3)cc2)c1 [Example C-127] | – | at least 75% | at least 75% | at least 75% | at least 75% |
| Cc1ccc(C(C)C)c(N2C(=O)CSC2=NC(=O)Nc2ccc(-n3cc(NC(=O)c4ccc(OC(C)C)cc4)c(C)n3)cc2)c1 [Example C-48] | – | – | at least 75% | at least 75% | at least 75% |
| Cc1ccc(C(C)C)c(N2C(=O)CSC2=NC(=O)Nc2ccc(-n3cc(NC(=O)c4ccc(S(C)(=O)=O)cn4)c(C)n3)cc2)c1 [Example C-38] | – | at least 75% | at least 75% | at least 75% | at least 75% |
| Cc1ccc(C(C)C)c(N2C(=O)CS/C2=N\C(=O)Nc2ccc(-n3nc(C)c(NC(=O)c4ccc(OC(F)(F)F)cc4)c3NCC3OCCO3)cc2)c1 [Example C-100] | at least 50% | at least 75% | at least 75% | at least 75% | at least 75% |
| Cc1ccc(C(C)C)c(N2C(=O)CSC2=NC(=O)Nc2ccc(-n3cc(NC(=O)c4ccc(N=S(C)(C)=O)cc4)c(C)n3)cc2)c1 [Example C-55] | – | at least 75% | – | – | at least 75% |
| Cc1ccc(C(C)C)c(N2C(=O)CSC2=NC(=O)Nc2ccc(-n3nc(C)c(NC(=O)c4ccc(Br)cc4)c3C)cc2)c1 [Example C-116] | at least 50% | at least 75% | at least 75% | at least 75% | at least 75% |
| Cc1ccc(C(C)C)c(N2C(=O)CS/C2=N\C(=O)Nc2ccc(-n3nc(C)c(NC(=O)c4ccc(OC(F)(F)F)cc4)c3N)cc2)c1 [Example C-101] | at least 50% | at least 75% | at least 75% | at least 75% | at least 75% |
| Cc1ccc(C(C)C)c(N2C(=O)CSC2=NC(=O)Nc2ccc(-n3nc(C)c(NC(=O)c4ccc(Br)c(C#N)c4)c3C)cc2)c1 [Example C-121] | at least 50% | at least 75% | – | at least 75% | at least 75% |
| Cc1ccc(C(C)C)c(N2C(=O)CSC2=NC(=O)Nc2ccc(-n3cc(NC(=O)c4ccc(C(C)(C)C#N)cc4)c(C)n3)cc2)c1 [Example C-56] | – | – | at least 75% | at least 75% | at least 75% |
| Cc1ccc(C(C)C)c(N2C(=O)CSC2=NC(=O)Nc2ccc(-n3cc(NC(=O)c4ccc(Cl)nc4)c(C)n3)cc2)c1 [Example C-66] | at least 50% | at least 75% | at least 75% | – | at least 75% |
| Cc1ccc(C(C)C)c(N2C(=O)CSC2=NC(=O)Nc2ccc(-n3nc(C)c(NC(=O)c4ccc(F)cc4)c3C)cc2)c1 [Example C-112] | at least 50% | at least 75% | at least 75% | at least 75% | at least 75% |
| Cc1ccc(C(C)C)c(N2C(=O)CSC2=NC(=O)Nc2ccc(-n3cc(NC(=O)c4ccc(C5CCC5)cc4)c(C)n3)cc2)c1 [Example C-58] | – | at least 75% | at least 75% | – | at least 75% |
| Cc1ccc(C(C)C)c(N2C(=O)CS/C2=N\C(=O)Nc2c(C)cc(-n3nc(C)c(NC(=O)c4ccc(OC(F)(F)F)cc4)c3C)cc2Cl)c1 [Example C-105] | at least 50% | at least 75% | at least 75% | at least 75% | at least 75% |
| Cc1ccc(C(C)C)c(N2C(=O)CSC2=NC(=O)Nc2ccc(-n3nc(C)c(NC(=O)c4ccc(F)c(Cl)c4)c3C)cc2)c1 [Example C-113] | at least 50% | at least 75% | at least 75% | – | at least 75% |
| Cc1ccc(C(C)C)c(N2C(=O)CSC2=NC(=O)Nc2ccc(-n3cc(NC(=O)c4ccc(C5COC5)cc4)c(C)n3)cc2)c1 [Example C-52] | – | at least 75% | at least 75% | – | at least 75% |
| Cc1ccc(C(C)C)c(N2C(=O)CS/C2=N\C(=O)Nc2ccc(-n3nc(C)c(NC(=O)c4ccc(Cl)cc4F)c3C)cc2Cl)c1 [Example C-106] | at least 50% | at least 75% | at least 75% | at least 75% | at least 75% |
| Cc1ccc(C(C)C)c(N2C(=O)CSC2=NC(=O)Nc2ccc(-n3nc(C)c(NC(=O)c4ccc(Cl)c(F)c4)c3C)cc2)c1 [Example C-109] | at least 50% | at least 75% | at least 75% | at least 75% | at least 75% |
| Cc1ccc(C(C)C)c(N2C(=O)CS/C2=N\C(=O)Nc2ccc(-n3cc(NC(=O)c4ccc(Cl)cc4)c(C)n3)cc2)c1 [Example C-29] | at least 50% | at least 75% | at least 75% | at least 75% | at least 75% |
| Cc1ccc(C(C)C)c(N2C(=O)CS/C2=N\C(=O)Nc2ccc(-n3cc(NC(=O)c4ccc(Cl)cc4Cl)c(C)n3)cc2)c1 [Example C-27] | – | at least 75% | at least 75% | at least 75% | at least 75% |
| Cc1ccc(C(C)C)c(N2C(=O)CSC2=NC(=O)Nc2ccc(-n3cc(NC(=O)c4ccc(S(C)(=O)=O)c(F)c4)c(C)n3)cc2)c1 [Example C-57] | – | – | at least 75% | – | at least 75% |
| Cc1ccc(C(C)C)c(N2C(=O)CSC2=NC(=O)Nc2ccc(-n3nc(C)c(NC(=O)c4ccc(C(Cl)Cl)cc4)c3C)cc2)c1 [Example C-122] | – | at least 75% | – | – | at least 75% |
